Laboratory results from paper PMC9977398, “Next-generation membrane-active glycopeptide antibiotics that also inhibit bacterial cell division” (Chemical Science, 2023).

How the values were obtained:
E. coli = test: MIC against E. coli; type: cell-based; settings: Escherichia coli
[1] = tested on: GFP-FtsZ expressing E. coli; test: GFP-FtsZ localization and morphology; type: cell-based; settings: 15 μM
Protocol: The FtsZ protein assembles into a membrane-associated ring structure at the division septum. It recruits other proteins for the progression and completion of cell division.[34] The effect of VanQAmC10 on the localization of FtsZ and morphology in E. coli producing green fluorescent protein (GFP)-tagged FtsZ was studied through microscopy (Fig. 5B). The cells were treated with IPTG to overexpress gfp-ftsZ and then either treated with compounds or left untreated. Upon treatment with 15 μM of VanQAmC10, the cells appear to be filamentous with variable lengths of up to 4 μm, while cells in the control group were ∼2.5 μm long. Incubation with VanQAmC10 for a longer time (130 minutes) results in bulkier filamentous cells, with severely distorted shapes (Fig. S4 ^†). […] IPTG-treated cells formed minicells of ∼1.5 μm length, which is characteristic of cells overproducing FtsZ.[35] Known inhibitors of FtsZ alter the regular midcell distribution of Z-rings.[36] […]
resuspended in prewarmed BMM media. […] The fluorescence in the GFP and Texas red channels was then observed under the microscope. […]
About 6 μl of sample was immobilized on 1% agarose pad . DIC and fluorescence images were obtained at different time intervals using Nikon Eclipse Ti Microscope equipped with Nikon DS-U3 camera through Plan Apo 100×/1.40 oil objective. […]

[2] = tested on: carbapenem-resistant A. baumannii; test: Murine chronic burn-wound infection model; type: in vivo, mice; settings: 30 mg kg^−1 topically for 5 days; untreated 8 log CFU g^−1
Protocol: Fig. 6 (A) Propensity of vancomycin and VanQAmC10 to induce resistance in MRSA upon serial exposure to sub-MIC concentrations; (B) (i) experimental design for in vivo efficacy study in a murine thigh infection model, (ii) in vivo efficacy of VanQAmC10 and vancomycin against the multidrug-resistant methicillin-resistant S. aureus (MRSA) (n = 3/dose). Antibiotics were administered intraperitoneally twice at 12 h intervals at a dose of 12 mg kg^−1. (C) (i) Experimental design for in vivo efficacy study in murine burn wound infection model, (ii) in vivo efficacy of VanQAmC10 and colistin against the carbapenem-resistant A. baumannii (n = 5/dose, 1 mouse died in untreated control). VanQAmC10 and colistin were treated topically at 30 mg kg^−1 for 5 days (‘***’ indicates p < 0.0001, ‘**’ indicates p < 0.001, ‘*’ p < 0.05, p = 0.08 (n.s.) for VanQAmC10 with respect to vancomycin).
Further, the efficacy of VanQAmC10 (8) was tested in a chronic burn-wound infection model of A. baumannii.[40] Chronic burn wounds on the back of mice were infected with A. baumannii. […] Infected mice were treated with 30 mg kg^−1 of VanQAmC10 and colistin for five days consecutively. The bacterial load in the untreated group increased to 8 log CFU g^−1 six days post-infection. […] The use of colistin is however limited due to its toxicity and bacteria easily develop resistance to it. […]

[3] = tested on: VRSA 4 (vancomycin-resistant S. aureus); parameters: method as in PMID 32195571; settings: previously reported; cited from earlier work
[4] = tested on: VRSA 12 (vancomycin-resistant S. aureus); parameters: method as in PMID 32195571; settings: previously reported; cited from earlier work
[5] = tested on: VRE 51559 (vancomycin-resistant E. faecium, VanA phenotype, ATCC 51559); parameters: method as in PMID 32195571; settings: previously reported; cited from earlier work
human erythrocytes = tested on: human erythrocytes; parameters: method as in PMID 32195571; settings: previously reported; cited from earlier work
A. baumannii = tested on: A. baumannii; parameters: method as in PMID 32195571; settings: cited from earlier work

SMILES: CCCCCCCCCCNC(=O)C[N+](C)(C)CCCNC(=O)C1NC(=O)C2NC(=O)C(NC(=O)C3NC(=O)C(CC(N)=O)NC(=O)C(NC(=O)C(CC(C)C)NC)C(O)c4ccc(c(Cl)c4)Oc4cc3cc(c4OC3OC(CO)C(O)C(O)C3OC3CC(C)(N)C(O)C(C)O3)Oc3ccc(cc3Cl)C2O)c2ccc(O)c(c2)-c2c(O)cc(O)cc21 (stereo not drawn) [VanQAmC10 (8)]
- MIC (E. coli): 16 µM
- localization and distribution of Z-rings [1]: remain unaltered
- length of filamentous cells ([1]; 40 min, control cells ∼2.5 μm): up to 4 μm
- lower bacterial load as compared to the untreated mice [2]: 2.2 log CFU g^−1
- Minimum inhibitory concentration, VRSA 4 [3]: 1.6 to 3.1 µM
- Minimum inhibitory concentration, VRSA 12 [4]: 1.6 µM
- Minimum inhibitory concentration, VRE 51559 [5]: 4 µM
- HC50 (human erythrocytes): >500 µM
- resistance induction in A. baumannii (A. baumannii): does not induce resistance
